{
  "source": "patent US5057493A",
  "about": "“Novel antibiotics R106” (priority 1988, dated 1991)",
  "key": {"[1]": {"system": "Geotrichum candidum TIMM 0694", "test": "MIC by agar dilution method, casitone agar", "format": "cell-based", "conditions": "27° C. for 7 days"}, "[2]": {"system": "Trichophyton rubrum TIMM 1216", "test": "MIC by agar dilution method, casitone agar", "format": "cell-based", "conditions": "27° C. for 7 days"}, "[3]": {"system": "Candida albicans TIMM 1768", "test": "Systemic candidiasis model of mice", "format": "in vivo, ICR strain mice", "conditions": "for Mean Survival Day: 3 hours after infection, then once a day for 4 days, 30 days; for Number of Animal Survived/Number of Animal Tested: 30 days after infection; for T/C: mean survival day treated vs control", "experimental": "Candida albicans TIMM 1768 was cultured in Sabouraud-dextrose broth at 37° C. overnight, and the cells were collected and suspended in physiological saline. A cell suspension containing 1×10^6 cells was intravenously injected to ICR strain mice (5 week age, female). After 3 hours, a solution of an antibiotic R106 in TWEEN 80-ethanolphysiological saline (1:9:90, v/v) was subcutaneously, intravenously or orally given to the mice in various concentrations, and then once a day for 4 days the R106 drug solution was given. Mortality was assessed for 30 days after infection to determine the therapeutic effect.\nT/C is a value which expresses the mean survival day of the treated group\nto the mean survival day of the not treated control group by %."}, "[4]": {"system": "Aspergillus commune TIMM 1331", "test": "MIC by agar dilution method, casitone agar", "format": "cell-based", "conditions": "27° C. for 7 days"}, "[5]": {"system": "Histoplasma capsulatum TIMM 0714", "format": "cell-based", "conditions": "27° C. for 7 days"}, "[6]": {"system": "Epidermophyton floccosum TIMM 0431", "test": "MIC by agar dilution method, casitone agar", "format": "cell-based", "conditions": "27° C. for 7 days"}, "[7]": {"system": "Aspergillus flavus TIMM 0058", "test": "MIC by agar dilution method, casitone agar", "format": "cell-based", "conditions": "27° C. for 7 days"}, "[8]": {"system": "Microsporum canis TIMM 0760", "test": "MIC by agar dilution method, casitone agar", "format": "cell-based", "conditions": "27° C. for 7 days"}, "[9]": {"system": "Aspergillus terreus TIMM 0120", "test": "MIC by agar dilution method, casitone agar", "format": "cell-based", "conditions": "27° C. for 7 days"}, "[10]": {"system": "Fonsecaea pedrosoi TIMM 0482", "test": "MIC by agar dilution method, casitone agar", "format": "cell-based", "conditions": "27° C. for 7 days"}},
  "note": "Starred links: 1 amine or outer side, 2 acyl side, 3 side chain; linkers in the order of their positions; H or OH if unused. Non-standard residues stand in square brackets, D forms with d. Residues, ends and D or L forms follow the SMILES beside them. ξ: configuration not given here. ξNMeVal(3-OH) = CNC(C(=O)O)C(C)(C)O; NMeF = CN[CH](Cc1ccccc1)C(=O)O; X1 = CCC(C)C(O[*:1])C(=O)[*:2]; NMeV = CN[CH](C(=O)O)C(C)C",
  "data": [
    {"smiles": "CCC(C)C1NC(=O)C2CCCN2C(=O)C(Cc2ccccc2)N(C)C(=O)C(Cc2ccccc2)NC(=O)C(C(C)C)N(C)C(=O)C(C(C)CC)OC(=O)C(C(C)(C)O)N(C)C(=O)C(CC(C)C)NC(=O)C(C(C)C)N(C)C1=O", "note": "(stereo not drawn) [Compound 1] (cyclo([ξNMeVal(3-OH)][X1][NMeV]F[NMeF]PI[NMeV]L); configuration not given here)", "values": [
      {"measurement": "Minimum Inhibitory Concentration", "setting": "[1]", "value": 0.63, "unit": "µg/mL"},
      {"measurement": "Minimum Inhibitory Concentration", "setting": "[2]", "value": "> 80", "unit": "µg/mL"},
      {"measurement": "Mean Survival Day", "setting": "[3]; i.v. 0.875 mg/kg", "value": "14.6 ± 1.9", "unit": "days"},
      {"measurement": "Number of Animal Survived/Number of Animal Tested", "setting": "[3]; i.v. 0.875 mg/kg", "value": "0/5"},
      {"measurement": "T/C", "setting": "[3]; i.v. 0.875 mg/kg", "value": 119, "unit": "%"},
      {"measurement": "Mean Survival Day", "setting": "[3]; i.v. 1.75 mg/kg", "value": "18.2 ± 5.0", "unit": "days"},
      {"measurement": "Number of Animal Survived/Number of Animal Tested", "setting": "[3]; i.v. 1.75 mg/kg", "value": "0/5"},
      {"measurement": "T/C", "setting": "[3]; i.v. 1.75 mg/kg", "value": 149, "unit": "%"},
      {"measurement": "Mean Survival Day", "setting": "[3]; i.v. 3.5 mg/kg", "value": "19.2 ± 6.3", "unit": "days"},
      {"measurement": "Number of Animal Survived/Number of Animal Tested", "setting": "[3]; i.v. 3.5 mg/kg", "value": "0/5"},
      {"measurement": "T/C", "setting": "[3]; i.v. 3.5 mg/kg", "value": 157, "unit": "%"},
      {"measurement": "Mean Survival Day", "setting": "[3]; i.v. 7 mg/kg", "value": "29.0 ± 2.2", "unit": "days"},
      {"measurement": "Number of Animal Survived/Number of Animal Tested", "setting": "[3]; i.v. 7 mg/kg", "value": "4/5"},
      {"measurement": "T/C", "setting": "[3]; i.v. 7 mg/kg", "value": 237, "unit": "%"},
      {"measurement": "Mean Survival Day", "setting": "[3]; i.v. 14 mg/kg", "value": "26.6 ± 5.0", "unit": "days"},
      {"measurement": "Number of Animal Survived/Number of Animal Tested", "setting": "[3]; i.v. 14 mg/kg", "value": "3/5"},
      {"measurement": "T/C", "setting": "[3]; i.v. 14 mg/kg", "value": 217, "unit": "%"},
      {"measurement": "Mean Survival Day", "setting": "[3]; p.o. 7 mg/kg", "value": "14.8 ± 4.8", "unit": "days"},
      {"measurement": "Number of Animal Survived/Number of Animal Tested", "setting": "[3]; p.o. 7 mg/kg", "value": "0/5"},
      {"measurement": "T/C", "setting": "[3]; p.o. 7 mg/kg", "value": 121, "unit": "%"},
      {"measurement": "Mean Survival Day", "setting": "[3]; p.o. 14 mg/kg", "value": "23.2 ± 6.2", "unit": "days"},
      {"measurement": "Number of Animal Survived/Number of Animal Tested", "setting": "[3]; p.o. 14 mg/kg", "value": "0/5"},
      {"measurement": "T/C", "setting": "[3]; p.o. 14 mg/kg", "value": 189, "unit": "%"},
      {"measurement": "Mean Survival Day", "setting": "[3]; p.o. 28 mg/kg", "value": "30.0 ± 0", "unit": "days"},
      {"measurement": "Number of Animal Survived/Number of Animal Tested", "setting": "[3]; p.o. 28 mg/kg", "value": "5/5"},
      {"measurement": "T/C", "setting": "[3]; p.o. 28 mg/kg", "value": 245, "unit": "%"},
      {"measurement": "Mean Survival Day", "setting": "[3]; s.c. 1.75 mg/kg", "value": "14.2 ± 2.9", "unit": "days"},
      {"measurement": "Number of Animal Survived/Number of Animal Tested", "setting": "[3]; s.c. 1.75 mg/kg", "value": "0/5"},
      {"measurement": "T/C", "setting": "[3]; s.c. 1.75 mg/kg", "value": 116, "unit": "%"},
      {"measurement": "Mean Survival Day", "setting": "[3]; s.c. 3.5 mg/kg", "value": "18.8 ± 3.5", "unit": "days"},
      {"measurement": "Number of Animal Survived/Number of Animal Tested", "setting": "[3]; s.c. 3.5 mg/kg", "value": "0/5"},
      {"measurement": "T/C", "setting": "[3]; s.c. 3.5 mg/kg", "value": 153, "unit": "%"},
      {"measurement": "Mean Survival Day", "setting": "[3]; s.c. 7 mg/kg", "value": "22.4 ± 7.0", "unit": "days"},
      {"measurement": "Number of Animal Survived/Number of Animal Tested", "setting": "[3]; s.c. 7 mg/kg", "value": "2/5"},
      {"measurement": "T/C", "setting": "[3]; s.c. 7 mg/kg", "value": 183, "unit": "%"},
      {"measurement": "Mean Survival Day", "setting": "[3]; s.c. 14 mg/kg", "value": "27.2 ± 6.3", "unit": "days"},
      {"measurement": "Number of Animal Survived/Number of Animal Tested", "setting": "[3]; s.c. 14 mg/kg", "value": "4/5"},
      {"measurement": "T/C", "setting": "[3]; s.c. 14 mg/kg", "value": 222, "unit": "%"},
      {"measurement": "Minimum Inhibitory Concentration", "setting": "[4]", "value": 1.25, "unit": "µg/mL"},
      {"measurement": "Minimum Inhibitory Concentration", "setting": "[5]", "value": 0.08, "unit": "µg/mL"},
      {"measurement": "Minimum Inhibitory Concentration", "setting": "[6]", "value": 2.5, "unit": "µg/mL"},
      {"measurement": "Minimum Inhibitory Concentration", "setting": "[7]", "value": "> 80", "unit": "µg/mL"},
      {"measurement": "Minimum Inhibitory Concentration", "setting": "[8]", "value": "> 80", "unit": "µg/mL"},
      {"measurement": "Minimum Inhibitory Concentration", "setting": "[9]", "value": 5, "unit": "µg/mL"},
      {"measurement": "Minimum Inhibitory Concentration", "setting": "[10]", "value": 0.31, "unit": "µg/mL"}
    ]}
  ]
}
